Source: patent US5527703A (Merck & Co., Inc., priority 1994, dated 1996)

Assays:
[1] = biological target: T1, GluClβ (Caenorhabditis elegans, UniProt Q17328); experiment: Modulation of glutamate-sensitive current by IVMPO4, GluClβ injected oocytes; assay type: cell-based, C. elegans
T1 construct: the full-length open reading frame of the GluCl cDNA encoding the GluClα (52,550 kDa) and GluClβ (49,900kDa) subunits; expressed in transfected cells; host or cells: Xenopus laevis oocytes injected with in vitro RNA
T1 sequence (Q17328 23-434): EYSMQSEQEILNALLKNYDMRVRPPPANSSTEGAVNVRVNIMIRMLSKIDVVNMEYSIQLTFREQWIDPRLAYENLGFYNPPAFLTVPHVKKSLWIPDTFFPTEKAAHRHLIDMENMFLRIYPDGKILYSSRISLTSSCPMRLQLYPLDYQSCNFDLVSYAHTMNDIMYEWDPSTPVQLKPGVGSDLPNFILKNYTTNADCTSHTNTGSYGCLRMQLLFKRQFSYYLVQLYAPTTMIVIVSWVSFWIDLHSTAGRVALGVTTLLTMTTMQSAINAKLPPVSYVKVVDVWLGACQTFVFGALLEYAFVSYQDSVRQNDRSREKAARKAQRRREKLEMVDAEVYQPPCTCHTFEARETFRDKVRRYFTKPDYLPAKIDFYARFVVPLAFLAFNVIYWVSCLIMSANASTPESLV
Procedure: (§1) Xenopus laevis oocytes were prepared and injected using standard methods previously described and known in the art [Arena, J. P., Liu. K. K., Paress, P. S. & Cully. D. F. Mol. Pharmacol. 40, 368-374 (1991 ); Arena, J. P., Liu, K. K., Paress, P. S., Schaeffer, J. M. & Cully, D. F. Mol. Brain Res. 15, 339-348 (1992)]. Adult female Xenopus laevis were anesthetized with 0.17% tricaine methanesulfonate and the ovaries were surgically removed and placed in a dish consisting of (mM): NaCl 1 82.5, KCl 2. MgCl2 1, CaCl2 1.8, HEPES 5 adjusted to pH 7.5 with NaOH (OR-2). Ovarian lobes were broken open, rinsed several times, and gently shaken in OR-2 containing 0.2% collagenase (Sigma, Type 1A) for 2-5 hours. […]
(§2) Recordings were made at room temperature 2-10 days after injection. […] Data were acquired and analyzed using PCLAMP with a TL-1 interface (Axon Instruments, Foster City, Calif.). Membrane current at a holding potential of -80 mV was recorded. The amplitude of drug-sensitive current was determined by subtracting the holding current at -80 mV from the peak current obtained in the presence of drug. […] Current/voltage relationships (I/V) and reversal potentials (Erev) were determined using a 1-3 sec voltage ramp over the voltage range of -110 to +80 mV. […]

[2] = biological target: T2, GluClα (Caenorhabditis elegans, UniProt G5EBR3); experiment: Glutamate current after IVMPO4 current activation, GluClα injected oocytes; assay type: cell-based, C. elegans; design: the full-length open reading frame of the GluCl cDNA encoding the GluClα (52,550 kDa) and GluClβ (49,900kDa) subunits; expressed in transfected cells; host or cells: Xenopus laevis oocytes injected with in vitro RNA
T2 sequence (G5EBR3 21-461): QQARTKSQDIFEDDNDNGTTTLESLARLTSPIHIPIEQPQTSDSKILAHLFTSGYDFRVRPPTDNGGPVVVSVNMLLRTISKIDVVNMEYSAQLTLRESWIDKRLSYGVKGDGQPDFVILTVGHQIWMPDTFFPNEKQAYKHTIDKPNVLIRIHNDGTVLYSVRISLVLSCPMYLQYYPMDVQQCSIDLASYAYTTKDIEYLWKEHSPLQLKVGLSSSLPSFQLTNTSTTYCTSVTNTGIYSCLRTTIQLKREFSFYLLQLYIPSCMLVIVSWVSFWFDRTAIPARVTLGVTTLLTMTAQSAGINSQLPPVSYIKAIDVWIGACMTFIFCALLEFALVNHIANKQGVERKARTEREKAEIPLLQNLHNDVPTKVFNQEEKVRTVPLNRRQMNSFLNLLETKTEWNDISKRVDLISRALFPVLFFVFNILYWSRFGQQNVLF
Procedure: as §1, §2

| Compound | reduction of glutamate-sensitive current ([1]; following IVMPO4 1 μM) [%] | potentiation of glutamate response ([1]; homomeric GluClβ channels) | lowest glutamate concentrations at which glutamate-sensitive current could be observed ([2]; following IVMPO4 current activation) [µM] | increase in current with glutamate ([2]; prior activation of current with IVMPO4) [%] |
| --- | --- | --- | --- | --- |
| ivermectin-4-O-phosphate [IVMPO4] | 88±4 | not potentiated | – | – |
| N[C@@H](CCC(=O)O)C(=O)O [glutamate] | – | – | 10 | 20±4 |
